Source: patent publication US9427468B2, “Compositions and methods for diagnosing and treating community-acquired methicillin-resistant Staphylococcus aureus” (priority 2007, dated 2016)
In brackets after ≈: the same amount, converted by molar mass.

Key:
COL wild-type = assay: MIC by microdilution (CLSI); format: cell-based, Staphylococcus aureus
Source text: (§1) The present invention was described based on a series of experiments examining the biological basis for CA-MRSA strains versus HA-MRSA strains, focusing on the role of PBPs in CA-MRSA and generally in β-lactam resistance. Experiments were first performed using mutants of various PBPs. In-frame deletion mutants of the genes encoding PBP3 (MW1504) and PBP4 (MW0604), pbp3 and pbp4 respectively, were generated in the CA-MRSA strain MW2 and in HA-MRSA strain COL using the temperature-sensitive allelic replacement vector pMAD (Arnaud, M. et al. 2004. Appl. Environ. Microbiol. 70:6887-6891). PBP4 was also deleted in the HA-MRSA strains Mu50 and N315 and in the CA-MRSA strain USA300. […] Minimum inhibitory concentrations (MICs) were determined according to the Clinical and Laboratory Standards Institute and are a standard method for defining antibiotic efficacy against different organisms. Bacteria, grown to an OD650=1, were added to cation-supplemented Mueller Hinton broth (CSMHB) to achieve a final concentration of 5×10^5 CFU/ml.
(§2) Although PBP4, similar to PBP2A, binds with low affinity to many β-lactams, PBP4 binds cefoxitin, a semi-synthetic β-lactam derived from cephamycin C, with high affinity (Nair, S. R. and C. E. Cherubin. 1978. Antimicrob. Agents Chemother. 14:866-875).
(§3) Minimum inhibitory concentrations and minimum bactericidal concentrations (MIC and MBC, respectively) were determined for each isolate in triplicate by microdilution techniques with an inoculum of 5×10^5 CFU/ml according to the Clinical and Laboratory Standards Institute guidelines. Aliquots (5 μl) from clear wells were plated onto TSA drug-free plates for the determination of MBCs, followed by incubation at 37° C. for 24 and 48 hours. For the mutant strains, each one of the three clones was tested. MIC data were reported as median values from at least three independent experiments for each antibiotic. Also, strains containing pEPSA5-based plasmids were tested with and without xylose induction, but chloramphenicol was not added to avoid interference with beta-lactam resistance evaluation. […] The correct inocula were confirmed by plating serial dilutions on agar.

MW2 (USA400) wild-type = assay: MIC by microdilution (CLSI); format: cell-based, Staphylococcus aureus
Source text: as §1, §2, §3

USA300 wild-type = assay: MIC by microdilution (CLSI); format: cell-based, Staphylococcus aureus
Source text: as §1, §2, §3

MW2 ex Δpbp4 = assay: MIC by microdilution (CLSI); format: cell-based, Staphylococcus aureus
Source text: as §1, §3

MW2 Δpbp3/4 = assay: MIC by microdilution (CLSI); format: cell-based, Staphylococcus aureus; details: Table 1, MW2 Δpbp3/4
Source text: as §1, §3

MW2 Δpbp3 = assay: MIC by microdilution (CLSI); format: cell-based, Staphylococcus aureus; details: Table 1; MW2 Δpbp3
Source text: as §1, §3

MW2 Δpbp4::pbp4 = assay: MIC by microdilution (CLSI); format: cell-based, Staphylococcus aureus; details: Table 1; MW2 Δpbp4::pbp4 (complemented)
Source text: as §1, §3

MW2 Δpbp4 = assay: MIC by microdilution (CLSI); format: cell-based, Staphylococcus aureus
Source text: as §1, §3

N315 wild-type = assay: MIC by microdilution (CLSI); format: cell-based, Staphylococcus aureus
Source text: as §1, §3

USA300 Δpbp4::pbp4 = assay: MIC by microdilution (CLSI); format: cell-based, Staphylococcus aureus; details: Table 1; USA300 Δpbp4::pbp4 (complemented)
Source text: as §1, §3

USA300 Δpbp4 = assay: MIC by microdilution (CLSI); format: cell-based, Staphylococcus aureus
Source text: as §1, §3

MW2 ex Δpbp3/4 = assay: MIC by microdilution (CLSI); format: cell-based, Staphylococcus aureus
Source text: as §1, with “Experiments” for “The present invention was described based on a series of experiments examining the biological basis for CA-MRSA strains versus HA-MRSA strains, focusing on the role of PBPs in CA-MRSA and generally in β-lactam resistance. Experiments”
as §3

MRSA252 HA-MRSA [1] = assay: MIC and synergy assay; format: cell-based, Staphylococcus aureus; details: for combination: MIC of oxacillin with ¼ MIC cefoxitin
Protocol: as §3

COL HA-MRSA = assay: Minimum bactericidal concentration (MBC); format: cell-based, Staphylococcus aureus; details: for combination: MBC of oxacillin with ¼ MIC cefoxitin
Protocol: as §3

MRSA252 HA-MRSA [2] = assay: Minimum bactericidal concentration (MBC); format: cell-based, Staphylococcus aureus; details: for combination: MBC of oxacillin with ¼ MIC cefoxitin
Protocol: as §3

Mu50 HA-MRSA/VISA = assay: Minimum bactericidal concentration (MBC); format: cell-based, Staphylococcus aureus; details: for combination: MBC of oxacillin with ¼ MIC cefoxitin
Protocol: as §3

[3] = test system: MW2 ex (MW2 cured of plasmid pMW2); assay: MIC by microdilution (CLSI); format: cell-based; details: Staphylococcus aureus, Table 1
Source text: as §1, with “Experiments” for “The present invention was described based on a series of experiments examining the biological basis for CA-MRSA strains versus HA-MRSA strains, focusing on the role of PBPs in CA-MRSA and generally in β-lactam resistance. Experiments”
as §3

MW2 ex Δpbp3 = assay: MIC by microdilution (CLSI); format: cell-based; details: Staphylococcus aureus, read-out: MICs
Source text: as §1, with “Experiments” for “The present invention was described based on a series of experiments examining the biological basis for CA-MRSA strains versus HA-MRSA strains, focusing on the role of PBPs in CA-MRSA and generally in β-lactam resistance. Experiments”
as §3

PBP4 = details: cited from earlier work
[4] = Staphylococcus aureus, read-out: MICs

## Cc1onc(-c2ccccc2)c1C(=O)N[C@@H]1C(=O)N2[C@@H]1SC(C)(C)[C@@H]2C(=O)O [OX, oxacillin]
COL wild-type; COL, 48 hr, for combination: MIC of oxacillin with ¼ MIC cefoxitin
  MICs 48 hr: 256 µg/mL
COL wild-type; Table 1, COL wild-type
  MICs: 256 µg/mL
MW2 (USA400) wild-type; MW2, 48 hr, for combinations: MIC of oxacillin with ¼ MIC of second drug
  MICs 48 hr: 64 µg/mL
MW2 (USA400) wild-type; Table 1, MW2 (USA400) wild-type
  MICs: 64 µg/mL
USA300 wild-type; Table 1, USA300 wild-type
  MICs: 64 µg/mL
USA300 wild-type; USA300, 48 hr, for combinations: MIC of oxacillin with ¼ MIC of second drug
  MICs 48 hr: 64 µg/mL
MW2 ex Δpbp4; MW2 ex Δpbp4 versus MW2 ex
  reduction in oxacillin MIC for the pbp4 mutant: 64 fold
MW2 ex Δpbp4; Table 1, MW2 ex Δpbp4
  MICs: 2 µg/mL
MW2 Δpbp3/4
  MICs: 4 µg/mL
MW2 Δpbp3/4; listed as oxacillin
  MICs: 1 µg/mL
MW2 Δpbp3
  MICs: 64 µg/mL
MW2 Δpbp4::pbp4
  MICs: 64 µg/mL
MW2 Δpbp4; MW2 Δpbp4 versus MW2
  reduction in MIC on loss of pbp4: 16 fold
MW2 Δpbp4; Table 1, MW2 Δpbp4
  MICs: 4 µg/mL
MW2 Δpbp4; pbp4 mutant of MW2 with pbp2 expressed from inducible plasmid pEPSA5
  MICs: 4 µg/mL
N315 wild-type; Table 1, N315 wild-type
  MICs: 256 µg/mL
USA300 Δpbp4::pbp4
  MICs: 64 µg/mL
USA300 Δpbp4; Table 1, USA300 Δpbp4
  MICs: 4 µg/mL
USA300 Δpbp4; USA300 Δpbp4 versus USA300
  reduction in MIC on loss of pbp4: 16 fold
USA300 Δpbp4; pbp4 mutant of USA300 with pbp2 expressed from inducible plasmid pEPSA5
  MICs: 4 µg/mL
MW2 ex Δpbp3/4; Table 1, MW2 ex Δpbp3/4
  MICs: 1 µg/mL
MRSA252 HA-MRSA [1]
  MICs 48 hr: 256 µg/mL
COL HA-MRSA
  MBC 48 hr: >256 µg/mL
MRSA252 HA-MRSA [2]
  MBC 48 hr: >256 µg/mL
Mu50 HA-MRSA/VISA
  MBC 48 hr: >256 µg/mL

## CO[C@@]1(NC(=O)Cc2cccs2)C(=O)N2C(C(=O)O)=C(COC(N)=O)CS[C@@H]21 [CX, cefoxitin]
COL wild-type; [4]
  MIC: 128 µg/mL (≈ 299 µM)
MW2 (USA400) wild-type; Staphylococcus aureus, USA400, read-out: MICs
  MIC: 64 µg/mL (≈ 150 µM)
USA300 wild-type; Staphylococcus aureus, USA300, read-out: MICs
  MIC: 64 µg/mL (≈ 150 µM)
MW2 ex Δpbp4; [4]
  MIC: 16 µg/mL (≈ 37.4 µM)
N315 wild-type; [4]
  MIC: 64 µg/mL (≈ 150 µM)
[3]
  MIC: 16 µg/mL (≈ 37.4 µM)
MW2 ex Δpbp3
  MIC: 32 µg/mL (≈ 74.9 µM)
MW2 ex Δpbp3/4; [4]
  MIC: 32 µg/mL (≈ 74.9 µM)
PBP4
  affinity for PBP4: high affinity
